# Key:
# rβ-gal CHO cells [1] = assay: rβ-Gal assay (ONPG) in lysates of rβ-gal CHO cells; assay type: cell-based, Chinese hamster; conditions: for level of rβ-gal expression versus CD CHO control: Example 14, 25 μg/mL in CD CHO medium, FIG. 14
# Description: rβ-Galactosidase (rβ-gal or rβeta-Gal) was measured in cell lysates using a modification of the method described by Hall et al., J. Mol. Appl. Gen. 2:101-109 (1983) and Miller, Experiments in Molecular Genetics, Cold Spring Harbor Laboratory (1972). Briefly, a 2.0 ml sample of cell suspension was collected from each sample and subjected to two freeze-thaw cycles, centrifuged at 100× g for 4 minutes, and the supernatant was saved for rβ-Galactosidase quantitation. 100 μl of each supernatant sample was added to 1.0 ml Z buffer (0.06 M Na2HPO4, 0.04M NaH2PO4, 0.01M KCl, 0.01M MgSO4-7H2O, 0.05M β-mercaptoethanol, pH 7.0), followed by 200 μl of o-nitrophenyl-p-D-galactoside (ONPG, 4.0 mg/ml in dH20) and incubated at 37° C. for 120 minutes. The reaction was halted by addition of 500 μl stop buffer (1M Na2CO3) and absorbance at 420 nm was read against a blank of the appropriate medium. Activity was calculated using the following formulae:
# [formula] Units rβ-galactosidase/# of cells=Activity/cell 2.
# rβ-gal CHO cells [2] = assay: Growth (cell density) of rβ-gal CHO cells in suspension culture; assay type: cell-based, Chinese hamster; conditions: for cell growth and viability versus CD CHO control: Example 14, 25 μg/mL in CD CHO medium, FIG. 13
# Description: To establish a recombinant β-galactosidase (rβ-Gal) CHO cell line, CHO cells deficient in dihydrofolate reductase (DHFR^−) were obtained from ATCC(CRL-9096, Rockville, Md.) and transfected with two plasmids: pSV2dhfr (ATCC 37146), containing a gene for methotrexate (MTX) resistance, and pCMVβgal, which contains the lacZ cDNA. The transfection was conducted using LipofectAMINE™ Reagent, and selection was accomplished with 1.2 μM methotrexate (Sigma Chemical Co., St Louis, Mo.). Stock cultures were maintained in CHO-S-SFM II or CHO III Prototype supplemented with 0.3 μM MTX.
# Unless indicated otherwise below, CHO cell culture conditions were as follows for the following Examples. 25-35 mL of CHO cells were cultured in 125 mL shake flasks in humidified air containing 5-10% carbon dioxide. The shake flasks were shaken on an orbital shaking platform at 125-135 rpm. Temperature was maintained at 37° C. Cells were subcultured every three to four days to a density of 2−3×10^5 cells/mL.
# [3] = system: 293 human embryonic kidney cells; assay: Suspension culture of 293 cells: cell density and viability; assay type: cell-based; conditions: lower-protein media, transferrin replaced by iron chelate; FIG. 2
# Description: Adenovirus type 5-transformed 293 human embryonic kidney epithelial cells were obtained from ATCC(CRL 1573), and were cultured as described in Example 4 by incubation at 37° C. in a humidified atmosphere consisting of 8% CO2/92% air.
# Cultures of 293 cells in serum-supplemented media were weaned from serum by passage 2-3 times in OptiMEM medium (Life Technologies, Inc.; Rockville, Md.) supplemented with 2% normal horse serum in 165 cm^2 culture flasks. After the second or third passage, when cells reached 50-75% confluence, they were dislodged from the growth surfaces by gently rapping the flasks several times; trypsin or other proteolytic agents were not used, since such agents often cause irreversible damage to cells cultivated in low-serum or serum-free media. Cells were resuspended in the present culture media and triturated until aggregates dispersed into a single cell suspension, and cell concentration and viability was determined by trypan blue exclusion counting on a hemacytometer according to routine procedures.
# Cells were then seeded into the present culture medium in Erlenmeyer flasks at a density of about 2.5−3.0×10^5 cells/ml. […] Cell densities and viabilities were determined at least every other day, and cells were subcultured when the density approached about 7.5−10.0×10^5 cells/ml by diluting cultures with fresh culture medium to a density of about 2.5−3.0×10^5 cells/ml. […]
Compound,level of rβ-gal expression versus CD CHO control (rβ-gal CHO cells [1]),cell growth and viability versus CD CHO control (rβ-gal CHO cells [2]),support of 293 cell growth compared with complete media [3],other results
"CN(Cc1cnc2nc(N)nc(N)c2n1)c1ccc(C(=O)N[C@@H](CCC(=O)O)C(=O)O)cc1 [MTX, methotrexate, reference compound]",–,–,–,"relation of concentration to rβ-galactosidase specific activity (rβ-gal CHO cells [1]; Example 9, CD CHO medium with increasing concentrations, FIG. 7B): proportional; relation of concentration to cell density (rβ-gal CHO cells [2]; Example 9, CD CHO medium with increasing concentrations, FIG. 7A): inversely proportional"
"dextran sulfate [dextran sulfate (m.w. 5,000)]","an increase in the level of rβ-gal expression at days 5, 7, and 9","increased cell growth and viability at days 5, 7, and 9",–,–
"dextran sulfate [dextran sulfate (m.w. 500,000)]",did not display enhanced expression,"increased cell growth and viability at days 5 and 7, but not at day 9",–,–
FeSO4-EDTA,–,–,performed equivalently to complete media,–
FeCl3-sodium citrate,–,–,performed equivalently to complete media,–
